Assay results: patent US11702422B2, “Imidazopyridazines as modulators of IL-17” (Janssen Pharmaceutica NV, priority 2020, dated 2023)

Tests used:
[1] = tested on: IL-17A-induced G-CSF production in human normal keratinocyte (NHK); test: NHK Assay: IL-17A-induced G-CSF production in human normal keratinocytes; type: cell-based; settings: 24 h, adult normal human keratinocytes, IL-17A 5 ng/mL, simple average if tested more than once
Experimental: IL-17A acts directly on keratinocytes through binding to dimeric receptor IL-17RA/RC and drives the production of a number of inflammatory mediators known to be elevated in psoriasis lesional tissue. IL-17A small molecule inhibitors that block the IL-17A to interact with IL-17R would inhibit the IL-17A signaling in its targeted cells such as keratinocytes. The compound functional activity is evaluated for its impact on IL-17A-induced G-CSF production in human normal keratinocyte (NHK).
Adult normal human keratinocytes are cultured in keratinocyte growth medium (Lonza) in a flask till reaching ˜ 90% confluence, then cells are transferred to a 384-well plate at density of 3000-4000 cell/well. Recombinant human IL-17A (Gibco PHC9174) is pre-incubated with titrated compound or DMSO for 1 h at rt then added to the cell culture plate. The final concentration of IL-17A is 5 ng/mL and DMSO is 0.2%, in the culture containing 5% FBS. Cells are cultured/treated for 24 h at 37° C. Supernatants are collected and G-CSF production is measured through HTRF technology using Human G-CSF Kit (CisBio). G-CSF concentration was extrapolated from the standard curve and IC50 is determined using GraphPad Prism. Cell viability is also evaluated using CellTiter-Glo kit (Promega) and effect of compound on cell viability is compared to DMSO control.

[2] = biological target: IL-17A(FLAG-Tagged): IL-17RA(His-Tagged) (Homo sapiens, UniProt Q16552, K93Q); test: IL-17A(FLAG-Tagged): IL-17RA(His-Tagged) Binding Disruption Eu-HTRF Assay; settings: IL-17A/IL-17RA binding disruption, simple average if tested more than once
UniProt Q16552, sequence (Q16552 with tags, fused parts or gaps K93Q): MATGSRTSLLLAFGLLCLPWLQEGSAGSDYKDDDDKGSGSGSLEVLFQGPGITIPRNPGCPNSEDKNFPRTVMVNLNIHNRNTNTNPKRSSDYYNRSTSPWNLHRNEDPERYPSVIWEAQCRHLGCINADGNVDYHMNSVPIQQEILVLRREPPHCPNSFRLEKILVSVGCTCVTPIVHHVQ
Source text: IL-17A(FLAG-Tagged): IL-17RA(His-Tagged) Binding Disruption Eu-HTRF Assay
An antibody directed against the FLAG tag of IL-17A (SEQ ID NO:1) is labeled with the HTRF donor chromophore (Europium-cryptate). IL-17A is present as a dimer that is “locked into” this quaternary structure due to the formation of loop-spanning […] disulfide bridges. The construct of IL-17RA used in the assay excludes the […] portion of the receptor and is fused to a C-terminal 10×His tag (SEQ ID NO:2). An antibody directed against the His tag of the IL-17RA chimera is labeled with the HTRF acceptor chromophore (“D2”). The fluorescence-resonance energy transfer (FRET) depends on the vicinity of the donor chromophore to the acceptor, and interruption of the binding between the IL-17A and IL-17RA causes the reduction/loss of FRET. Therefore, this assay allows to evaluate the compound effect on the binding IL-17A and IL-17RA by monitoring the fluorescence intensity of donor vs acceptor. The assay is run as described below.
40 nl of 2-fold serial diluted compound solution for total 22 dilution points is added into each well of a 1536-well, white, low-volume, non-binding plate (Greiner #782904), then 2 μl of FLAG tagged IL-17A at 2× final concentration (2.5 nM) in solution of PBS+0.01% Triton-X100 is added to each well. The assay plate is briefly centrifuged then incubated for 1 h at rt. A mixed solution is prepared containing 2×5 nM 10HIS×IL-17RA, 2×2.5 nM Eu-anti-FLAG (CISBIO), 2×5 nM D2-anti-HIS (CISBIO) in PBS+0.01% Triton-X100+200 mM Potassium Fluoride (Sigma 60238) and 2 μl of mix is added to each well of the assay plate. The plate is briefly centrifuged then incubated for 2 h at rt. The HTRF intensities at the wavelength of donor (620 nm) and acceptor (665 nm) are measured using BMG Pherastar. The ratio between intensities at two wavelengths is calculated and plotted against the compound concentration and the data is fitted to a one-site competition model to yield IC50 of the compound.

IC50 [2]	Structure (SMILES)	IC50 ([1]; Homo sapiens, Keratinocyte)	IC50 [1]
68 nM	O=C(CCC(F)(F)F)N[C@@H](c1cnn2cc([C@@H](NC(=O)c3cncc(OC(F)F)c3)C3CCC(F)(F)CC3)nc2c1)C1CC1 [Example 417, N—((S)-(7-((R)-Cyclopropyl(4,4,4-trifluorobutanamido)methyl)imidazo[1,2-b]pyridazin-2-yl)(4,4-difluorocyclohexyl)methyl)-5-(difluoromethoxy)nicotinamide]	410 nM	–
230 nM	O=C(CCC(F)(F)F)N[C@@H](c1cnn2cc([C@@H](NC(=O)c3cc(C(F)F)ncn3)C3CCC(F)(F)CC3)nc2c1)C1CC1 [Example 199, N—((S)-(7-((R)-Cyclopropyl(4,4,4-trifluorobutanamido)methyl)imidazo[1,2-b]pyridazin-2-yl)(4,4-difluorocyclohexyl)methyl)-6-(difluoromethyl)pyrimidine-4-carboxamide]	2000 nM	–
160 nM	CC1(c2nocc2C(=O)N[C@H](c2cn3ncc([C@H](NC(=O)CCC(F)(F)F)C4CC4)cc3n2)C2CCC(F)(F)CC2)COC1 [Example 100, N—[(S)-[7-[(R)-Cyclopropyl-(4,4,4-trifluorobutanoylamino)methyl]imidazo[1,2-b]pyridazin-2-yl]-(4,4-difluorocyclohexyl)methyl]-3-(3-methyloxetan-3-yl)isoxazole-4-carboxamide]	85 nM	–
170 nM	CC(C)n1nccc1C(=O)N[C@H](c1cn2ncc([C@H](NC(=O)CC3CCCC3(F)F)C3CC3)cc2n1)C1CCC(F)(F)CC1 (stereo partly drawn) [Example 275, N-((1S)-(7-((1R)-Cyclopropyl(2-(2,2-difluorocyclopentyl)acetamido)methyl)imidazo[1,2-b]pyridazin-2-yl)(4,4-difluorocyclohexyl)methyl)-1-isopropyl-1H-pyrazole-5-carboxamide]	150 nM	–
94 nM	CC(C)c1ccsc1C(=O)N[C@H](c1cn2ncc([C@H](NC(=O)CCC(F)(F)F)C3CC3)cc2n1)C1CCC(F)(F)CC1 [Example 463, N—((S)-(7-((R)-Cyclopropyl(4,4,4-trifluorobutanamido)methyl)imidazo[1,2-b]pyridazin-2-yl)(4,4-difluorocyclohexyl)methyl)-3-isopropylthiophene-2-carboxamide]	380 nM	–
60 nM	O=C(CCC(F)(F)F)N[C@@H](c1cnn2cc([C@@H](NC(=O)c3nocc3CC(F)(F)F)C3CCC(F)(F)CC3)nc2c1)C1CC1 [Example 377, N—((S)-(7-((R)-Cyclopropyl(4,4,4-trifluorobutanamido)methyl)imidazo[1,2-b]pyridazin-2-yl)(4,4-difluorocyclohexyl)methyl)-4-(2,2,2-trifluoroethyl)isoxazole-3-carboxamide]	85 nM	–

Second part, the molecule before the results:

Structure (SMILES)	IC50 [2]	IC50 ([1]; Homo sapiens, Keratinocyte)	IC50 [1]
N#CC1(C(NC(=O)CC2(C(F)(F)F)CC2)c2cnn3cc([C@@H](NC(=O)c4nonc4C4CC4)C4CCC(F)(F)CC4)nc3c2)CC1 (single isomer, unassigned) [Example 433, N—((S)-(7-((R*)-(1-Cyanocyclopropyl)(2-(1-(trifluoromethyl)cyclopropyl)acetamido)methyl)imidazo[1,2-b]pyridazin-2-yl)(4,4-difluorocyclohexyl)methyl)-4-cyclopropyl-1,2,5-oxadiazole-3-carboxamide]	1300 nM	> 20000 nM	–
Cc1nonc1C(=O)N[C@H](c1cn2ncc([C@H](NC(=O)COC(F)(F)F)C3CC3)cc2n1)C1CCC(F)(F)CC1 [Example 277, N—((S)-(7-((R)-Cyclopropyl(2-(trifluoromethoxy)acetamido)methyl)imidazo[1,2-b]pyridazin-2-yl)(4,4-difluorocyclohexyl)methyl)-4-methyl-1,2,5-oxadiazole-3-carboxamide]	180 nM	690 nM	–
CC(C)n1nccc1C(=O)N[C@H](c1cn2ncc([C@H](NC(=O)CC(C)(F)F)C3CC3)cc2n1)C1CCC(F)(F)CC1 [Example 261, N—((S)-(7-((R)-Cyclopropyl(3,3-difluorobutanamido)methyl)imidazo[1,2-b]pyridazin-2-yl)(4,4-difluorocyclohexyl)methyl)-1-isopropyl-1H-pyrazole-5-carboxamide]	130 nM	430 nM	–
CC(C(F)F)n1ncnc1C(=O)N[C@H](c1cn2ncc([C@H](NC(=O)CCC(F)(F)F)C3CC3)cc2n1)C1CCC(F)(F)CC1 (stereo partly drawn) [Example 479, N—((S)-(7-((R)-Cyclopropyl(4,4,4-trifluorobutanamido)methyl)imidazo[1,2-b]pyridazin-2-yl)(4,4-difluorocyclohexyl)methyl)-1-(1,1-difluoropropan-2-yl)-1H-1,2,4-triazole-5-carboxamide]	190 nM	430 nM	–
O=C(CCC(F)(F)F)N[C@@H](c1cnn2cc([C@@H](NC(=O)c3cnnn3C3CC3)C3CCC(F)(F)CC3)nc2c1)C1CC1 [Example 68, 1-Cyclopropyl-N—((S)-(7-((R)-cyclopropyl(4,4,4-trifluorobutanamido)methyl)imidazo[1,2-b]pyridazin-2-yl)(4,4-difluorocyclohexyl)methyl)-1H-1,2,3-triazole-5-carboxamide]	150 nM	250 nM	–
CC(n1nccc1C(=O)N[C@H](c1cn2ncc([C@H](NC(=O)CCC(F)(F)F)C3CC3)cc2n1)C1CCC(F)(F)CC1)C(F)(F)F (single isomer, unassigned) [Example 115, N—((S)-(7-((R)-Cyclopropyl(4,4,4-trifluorobutanamido)methyl)imidazo[1,2-b]pyridazin-2-yl)(4,4-difluorocyclohexyl)methyl)-1-((R*)-1,1,1-trifluoropropan-2-yl)-1H-pyrazole-5-carboxamide]	190 nM	140 nM	–
CC(C)n1nccc1C(=O)N[C@H](c1cn2ncc(C(NC(=O)CC(C(F)(F)F)C(F)(F)F)C3CC3)cc2n1)C1CCC(F)(F)CC1 (single isomer, unassigned) [Example 10, N—((S)-(7-((R*)-Cyclopropyl(4,4,4-trifluoro-3(trifluoromethyl)butanamido)methyl)imidazo[1,2-b]pyridazin-2-yl)(4,4-difluorocyclohexyl)methyl)-1-isopropyl-1H-pyrazole-5-carboxamide]	210 nM	–	44 nM
O=C(CCC(F)F)N[C@@H](c1cnn2cc([C@@H](NC(=O)c3nonc3C3CC3)C3CCC(F)(F)CC3)nc2c1)C1CC1 [Example 288, 4-Cyclopropyl-N—((S)-(7-((R)-cyclopropyl(4,4-difluorobutanamido)methyl)imidazo[1,2-b]pyridazin-2-yl)(4,4-difluorocyclohexyl)methyl)-1,2,5-oxadiazole-3-carboxamide]	71 nM	200 nM	–
[2H]C([2H])([2H])n1nccc1C(=O)N[C@H](c1cn2ncc([C@H](NC(=O)C[C@@H](C)C(F)(F)F)C3CCC3)cc2n1)C1CCC(F)(F)CC1 (relative stereo) [Example 502, N—((S)-(7-((R*)-Cyclobutyl((R*)-4,4,4-trifluoro-3-methylbutanamido)methyl)imidazo[1,2-b]pyridazin-2-yl)(4,4-difluorocyclohexyl)methyl)-1-(methyl-d3)-1H-pyrazole-5-carboxamide]	160 nM	400 nM	–
